In PubChem BioAssay AID1963438 (Molecular Pharmacology Branch, DTP, NCI, 2024):
Values belong to the compound of their own block, whether it stands above or below them.

Tested on: NCI-H510 multicellular tumor spheroid growth, % test/control
Assay: Anticancer human tumor NCI-H510 cell line growth inhibition [Asc];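 also: spheroids exposed to agents for 7 days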;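 as to viability, T/C: 100% = DMSO vehicle control wells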
Conditions: for IC50: curve of first compound; for viability, T/C: stronger effect = lower value
Procedure: Multicellular complex tumor spheroid response to apoptosis pathway targeting inhibitors Alrizomadlin, Pelcitoclax, and Dasminapant in combination with a variety of drugs and investigational agents in selected tumor cell lines
The MDM2 inhibitor alrizomadlin, the Bcl-2/Bcl-xL inhibitor pelcitoclax, and the IAPs inhibitor dasminapant were evaluated both individually and in combination with standard of care and investigational anticancer small molecules within a complex spheroid model of solid tumors. . Complex spheroids include a stromal component modeled by human endothelial cells (HUVEC) and fibroblasts modeled by human mesenchymal stem cells (MSCs). The concentration ranges selected for each drug and investigational agent were based upon clinically achievable concentrations if the clinical Cmax of the agent was known.
Compounds. The drugs and investigational agents: alrizomadlin (APG-115; NSC831270), pelcitoclax (APG-1252; NSC835773), dasminapant (APG-1387;NSC834197), TAK-243 (NSC785004), copanlisib (NSC809693), olaparib (NSC753686), talazoparib (NSC767125), cobimetinib (NSC 768068), eltanexor (KPT-8602, NSC 794443), abemaciclib (NSC 768073), sotorasib (NSC818433), adagrasib (NSC 831453), MRTX-1133 (NSC 836407), Iadademestat (ORY1001, NSC 806812), and RMC-4630 (NSC839698), were obtained from the NCI Developmental Therapeutics Program Chemical Repository. The FDA-approved anticancer drug set is available from the Developmental Therapeutics Program at https://dtp.cancer.gov/organization/dscb/obtaining/available plates.htm. […] The stock solutions were prepared in dimethyl sulfoxide (DMSO, Sigma-Aldrich, St. Louis, MO, cat. D2650) at 800-fold the tested concentration and stored at -70 degrees C prior to their use. All drugs and investigational agents were tested over a range starting from a high concentration at or near the clinical Cmax and decreasing in half-log increments. If the clinical Cmax for an agent had not been determined, the highest concentration tested was 10 microM.
The patient-derived cancer (PDC) cell lines include five colon adenocarcinomas: 186277-243-T-J2-PDC, 616215-338-R-J1-PDC, 439559-082-T-J2-PDC, 463943-066-T-J2-PDC, and 519858-162-T-J1-PDC; three pancreatic carcinomas: 323965-272-R-J2-PDC, 521955-158-R6-J3-PDC, and 521955-158-R2-J5-PDC; two uterine sarcomas: 327498-152-R-J2-PDC and 993429-296-R-J1-PDC; two rhabdomyosarcomas: 755483-174-R-J1-PDC and 772245-204-R-J1-PDC; two soft tissue sarcomas: 126254-015-R-J1-PDC and 494315-158-R-J1-PDC; two malignant fibrous histiocytomas: 317291-083-R-J1-PDC and 596521-263-R-J1-PDC; two breast carcinomas: 171881-019-R-J1-PDC and 885512-296-R-J2-PDC; and one ovarian carcinoma: 6556581-035-R-J-PDC were obtained from the NCI PDMR, (https://pdmr.cancer.gov). The established cell lines HSSY-2 synovial sarcoma (RRID:CVCL 8719), SYO-1 synovial sarcoma (RRID:CVCL_7146), MPNST malignant peripheral neural sheath tumor were obtained from the Sloan Kettering Institute. The following established cell lines were purchased from the American Type Culture Collection (ATCC, Manassas, VA), Sor the received from the NCI repository:, PANC-1 pancreatic carcinoma (CRL-1469, RRID:CVCL_0480), OVCAR-5 ovarian carcinoma (RRID:CVCL_1628), OVCAR-8 ovarian carcinoma (RRID:CVCL_1629), , MCF-7 breast carcinoma (CRL-12584, RRID:CVCL_0031), MDA-MB-231 breast carcinoma (CRL-12532, RRID:CVCL_0062), NCI-H1876 small cell lung carcinoma (CRL-5902, RRID:CVCL_1503), NCI-H510A small cell lung carcinoma (HTB-184, RRID:CVCL_1565), NCI-H1417 (CRL-5869, RRID:CVCL_1469), and NCI-H196 small cell lung carcinoma (CRL-5823, RRID:CVCL_1509). Dr. Peter Houghton (Greehey Children's Cancer Research Institute, University of Texas Health Science Center, San Antonio, TX) provided Rh-18 rhabdomyosarcoma (RRID:CVCL_1659). Pooled donor human umbilical vein endothelial cells (HUVEC, Lonza, cat. CC-2519) and human mesenchymal stem cells (hMSC, Lonza, cat. PT-2501) were purchased from Lonza (Walkersville, MD).
Cell Culture. […]

[1] = second compound 0.03 µM, first compound 0.00316 µM
[2] = second compound 0.03 µM, first compound 0.01 µM
[3] = second compound 0.03 µM, first compound 0.0316 µM
[4] = second compound 0.03 µM, first compound 0.1 µM
[5] = second compound 0.0949 µM, first compound 0.00316 µM
[6] = second compound 0.0949 µM, first compound 0.01 µM
[7] = second compound 0.0949 µM, first compound 0.0316 µM
[8] = second compound 0.0949 µM, first compound 0.1 µM
[9] = second compound 0.3 µM, first compound 0.00316 µM
[10] = second compound 0.3 µM, first compound 0.01 µM
[11] = second compound 0.3 µM, first compound 0.0316 µM
[12] = second compound 0.3 µM, first compound 0.1 µM
[13] = second compound 0.949 µM, first compound 0.00316 µM
[14] = second compound 0.949 µM, first compound 0.01 µM
[15] = second compound 0.949 µM, first compound 0.0316 µM
[16] = second compound 0.949 µM, first compound 0.1 µM
[17] = second compound 3 µM, first compound 0.00316 µM
[18] = second compound 3 µM, first compound 0.01 µM
[19] = second compound 3 µM, first compound 0.0316 µM
[20] = second compound 3 µM, first compound 0.1 µM

- IC50 (second compound 0.03 µM): > 1000 nM
- IC50 (second compound 0.0949 µM): > 1000 nM
- IC50 (second compound 0.3 µM): > 1000 nM
- IC50 (second compound 0.949 µM): > 1000 nM
- IC50 (second compound 3 µM): > 1000 nM
Structure (SMILES): CCN1CCN(Cc2ccc(Nc3ncc(F)c(-c4cc(F)c5nc(C)n(C(C)C)c5c4)n3)nc2)CC1 + CCN1C(C(=O)NC23CCC(C(=O)O)(CC2)CC3)C(c2cccc(Cl)c2F)C2(C(=O)Nc3cc(Cl)ccc32)C12CCCCC2
- viability, T/C [1]: 100%
- viability, T/C [2]: 88%
- viability, T/C [3]: 99.1%
- viability, T/C [4]: 129%
- viability, T/C (second compound 0.03 µM, first compound 0.316 µM): 123%
- viability, T/C (second compound 0.03 µM, first compound 1 µM): 75.7%
- viability, T/C [5]: 97.4%
- viability, T/C [6]: 116%
- viability, T/C [7]: 121%
- viability, T/C [8]: 110%
- viability, T/C (second compound 0.0949 µM, first compound 0.316 µM): 105%
- viability, T/C (second compound 0.0949 µM, first compound 1 µM): 87.5%
- viability, T/C [9]: 119%
- viability, T/C [10]: 114%
- viability, T/C [11]: 74.9%
- viability, T/C [12]: 86.1%
- viability, T/C (second compound 0.3 µM, first compound 0.316 µM): 106%
- viability, T/C (second compound 0.3 µM, first compound 1 µM): 88.7%
- viability, T/C [13]: 105%
- viability, T/C [14]: 107%
- viability, T/C [15]: 123%
- viability, T/C [16]: 74.5%
- viability, T/C (second compound 0.949 µM, first compound 0.316 µM): 107%
- viability, T/C (second compound 0.949 µM, first compound 1 µM): 106%
- viability, T/C [17]: 98.2%
- viability, T/C [18]: 127%
- viability, T/C [19]: 128%
- viability, T/C [20]: 76.1%
- viability, T/C (second compound 3 µM, first compound 0.316 µM): 113%
- viability, T/C (second compound 3 µM, first compound 1 µM): 83.1%

- IC50 (second compound 0.03 µM): 165 nM
- IC50 (second compound 0.0949 µM): 183 nM
- IC50 (second compound 0.3 µM): 138 nM
- IC50 (second compound 0.949 µM): 180 nM
- IC50 (second compound 3 µM): 54.3 nM
Structure (SMILES): NC(=O)C(=Cn1cnc(-c2cc(C(F)(F)F)cc(C(F)(F)F)c2)n1)c1cncnc1 + CCN1C(C(=O)NC23CCC(C(=O)O)(CC2)CC3)C(c2cccc(Cl)c2F)C2(C(=O)Nc3cc(Cl)ccc32)C12CCCCC2
- viability, T/C (second compound 0.03 µM, first compound 0.000949 µM): 113%
- viability, T/C (second compound 0.03 µM, first compound 0.003 µM): 89.3%
- viability, T/C (second compound 0.03 µM, first compound 0.00949 µM): 84.8%
- viability, T/C (second compound 0.03 µM, first compound 0.03 µM): 106%
- viability, T/C (second compound 0.03 µM, first compound 0.0949 µM): 56.9%
- viability, T/C (second compound 0.03 µM, first compound 0.3 µM): 42.4%
- viability, T/C (second compound 0.0949 µM, first compound 0.000949 µM): 88.4%
- viability, T/C (second compound 0.0949 µM, first compound 0.003 µM): 121%
- viability, T/C (second compound 0.0949 µM, first compound 0.00949 µM): 89.2%
- viability, T/C (second compound 0.0949 µM, first compound 0.03 µM): 95.1%
- viability, T/C (second compound 0.0949 µM, first compound 0.0949 µM): 65%
- viability, T/C (second compound 0.0949 µM, first compound 0.3 µM): 38.6%
- viability, T/C (second compound 0.3 µM, first compound 0.000949 µM): 80.7%
- viability, T/C (second compound 0.3 µM, first compound 0.003 µM): 94.9%
- viability, T/C (second compound 0.3 µM, first compound 0.00949 µM): 93.9%
- viability, T/C (second compound 0.3 µM, first compound 0.03 µM): 87.3%
- viability, T/C (second compound 0.3 µM, first compound 0.0949 µM): 58.4%
- viability, T/C (second compound 0.3 µM, first compound 0.3 µM): 32.4%
- viability, T/C (second compound 0.949 µM, first compound 0.000949 µM): 106%
- viability, T/C (second compound 0.949 µM, first compound 0.003 µM): 87.1%
- viability, T/C (second compound 0.949 µM, first compound 0.00949 µM): 99.3%
- viability, T/C (second compound 0.949 µM, first compound 0.03 µM): 79.9%
- viability, T/C (second compound 0.949 µM, first compound 0.0949 µM): 93.5%
- viability, T/C (second compound 0.949 µM, first compound 0.3 µM): 15.3%
- viability, T/C (second compound 3 µM, first compound 0.000949 µM): 90.1%
- viability, T/C (second compound 3 µM, first compound 0.003 µM): 106%
- viability, T/C (second compound 3 µM, first compound 0.00949 µM): 108%
- viability, T/C (second compound 3 µM, first compound 0.03 µM): 84%
- viability, T/C (second compound 3 µM, first compound 0.0949 µM): 18.3%
- viability, T/C (second compound 3 µM, first compound 0.3 µM): 14.9%

- IC50 (second compound 0.03 µM): > 100 nM
- IC50 (second compound 0.0949 µM): > 100 nM
- IC50 (second compound 0.3 µM): > 100 nM
- IC50 (second compound 0.949 µM): > 100 nM
- IC50 (second compound 3 µM): 84.8 nM
Structure (SMILES): NC1CCC(NC2CC2c2ccccc2)CC1 (stereo not given) + CCN1C(C(=O)NC23CCC(C(=O)O)(CC2)CC3)C(c2cccc(Cl)c2F)C2(C(=O)Nc3cc(Cl)ccc32)C12CCCCC2
- viability, T/C (second compound 0.03 µM, first compound 0.000316 µM): 85.9%
- viability, T/C (second compound 0.03 µM, first compound 0.001 µM): 84.4%
- viability, T/C [1]: 82.5%
- viability, T/C [2]: 81.9%
- viability, T/C [3]: 92.4%
- viability, T/C [4]: 91.9%
- viability, T/C (second compound 0.0949 µM, first compound 0.000316 µM): 101%
- viability, T/C (second compound 0.0949 µM, first compound 0.001 µM): 71.6%
- viability, T/C [5]: 77.5%
- viability, T/C [6]: 78.7%
- viability, T/C [7]: 60.6%
- viability, T/C [8]: 71.3%
- viability, T/C (second compound 0.3 µM, first compound 0.000316 µM): 92.4%
- viability, T/C (second compound 0.3 µM, first compound 0.001 µM): 85.8%
- viability, T/C [9]: 98.3%
- viability, T/C [10]: 95.8%
- viability, T/C [11]: 73.3%
- viability, T/C [12]: 55.8%
- viability, T/C (second compound 0.949 µM, first compound 0.000316 µM): 83.8%
- viability, T/C (second compound 0.949 µM, first compound 0.001 µM): 92.9%
- viability, T/C [13]: 90.6%
- viability, T/C [14]: 80.8%
- viability, T/C [15]: 72.3%
- viability, T/C [16]: 60.5%
- viability, T/C (second compound 3 µM, first compound 0.000316 µM): 106%
- viability, T/C (second compound 3 µM, first compound 0.001 µM): 82.3%
- viability, T/C [17]: 79.8%
- viability, T/C [18]: 75.2%
- viability, T/C [19]: 60%
- viability, T/C [20]: 46.6%
